The target in the assay is T1, GRK5 (Homo sapiens, UniProt P34947).
T1 construct: purchased Thermo Fisher Scientific (Life Technologies) SelectScreen
In words: SelectScreen Z'LYTE. The assay is classed as biochemical. The gist of the method: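 Compound tested in SelectScreen activity assays, Z'LYTE for CSF1R, CDK1/cyclin B and MAP2K6 and Adapta for CAMK1. ATP for CAMK1 was listed as 10, and Km app was used for CSF1R. Results are expressed in percent.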

T1 sequence (P34947 whole entry): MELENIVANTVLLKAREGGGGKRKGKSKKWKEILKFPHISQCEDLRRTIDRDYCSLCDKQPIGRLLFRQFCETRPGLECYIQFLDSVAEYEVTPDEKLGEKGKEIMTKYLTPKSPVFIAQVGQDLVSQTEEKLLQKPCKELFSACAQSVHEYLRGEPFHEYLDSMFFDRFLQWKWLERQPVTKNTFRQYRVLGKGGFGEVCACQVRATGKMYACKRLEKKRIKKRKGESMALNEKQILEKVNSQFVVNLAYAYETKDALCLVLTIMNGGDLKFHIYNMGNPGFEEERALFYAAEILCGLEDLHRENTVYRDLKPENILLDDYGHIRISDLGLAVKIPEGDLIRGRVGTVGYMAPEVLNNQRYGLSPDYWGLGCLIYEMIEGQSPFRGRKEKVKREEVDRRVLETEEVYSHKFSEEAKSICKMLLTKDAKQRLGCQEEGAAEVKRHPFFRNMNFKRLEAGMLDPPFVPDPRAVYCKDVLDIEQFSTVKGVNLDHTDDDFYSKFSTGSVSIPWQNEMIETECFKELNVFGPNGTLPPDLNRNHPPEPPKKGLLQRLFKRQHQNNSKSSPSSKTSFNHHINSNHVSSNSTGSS

On to `CN(C(=O)CN1CCOCC1)c1ccc2sc3c(-c4cccc5c(=O)cc(N6CC7CCC(C6)O7)oc45)cccc3c2c1` [NU5455], for which the inhibition at 1 µM was -3.2%.

In general, inhibition refers to the relative decrease from the control value, in per cent.

The record behind these values is article PMC6934184, “Selective DNA-PKcs inhibition extends the therapeutic index of localized radiotherapy and chemotherapy” (The Journal of Clinical Investigation, 2019).
